Measurements reported in article PMC11342346 (ACS Bio & Med Chem Au, 2024).
*1 amine or outer side, *2 acyl side, *3 side chain or, on linkers, in order; H or OH if unused. Where a SMILES comes first, the peptide text is derived from it. Bridges are numbered along the chain shown (N, C = ends). Roman numbers before positions name the chains, in order. Where no end group is shown, it is not given here. The star is where a group is joined. CO(CH2CH2O)5CH2CH2CO = O=C(CCOCCOCCOCCOCCOCCC(=O)[*:2])[*:1]; PEG12 = NCCOCCOCCOCCOCCOCCOCCOCCOCCOCCOCCOCCOCCC(=O)O; Biotin = O=C1N[C@H]2[C@H](CS[C@H]2CCCCC(=O)*)N1; PEG2 = NCCOCCOCCC(=O)O

Experiments:
biotin-PEG12-MK1-3.6.10S = experiment: SPR
biotin-PEG2-MK1-3.6.10S = experiment: SPR
[1] = test system: Ring Finger Protein 43 (RNF43); format: binding; conditions: SPR, DCP immobilized on streptavidin sensor, RNF43 as analyte
[2] = test system: Wnt signaling in HEK293 TOPbrite (TB) luciferase reporter cells; format: cell-based; conditions: three independent runs

human ZNRF3 (free, in solution), sequence (Q9ULT6 56-936): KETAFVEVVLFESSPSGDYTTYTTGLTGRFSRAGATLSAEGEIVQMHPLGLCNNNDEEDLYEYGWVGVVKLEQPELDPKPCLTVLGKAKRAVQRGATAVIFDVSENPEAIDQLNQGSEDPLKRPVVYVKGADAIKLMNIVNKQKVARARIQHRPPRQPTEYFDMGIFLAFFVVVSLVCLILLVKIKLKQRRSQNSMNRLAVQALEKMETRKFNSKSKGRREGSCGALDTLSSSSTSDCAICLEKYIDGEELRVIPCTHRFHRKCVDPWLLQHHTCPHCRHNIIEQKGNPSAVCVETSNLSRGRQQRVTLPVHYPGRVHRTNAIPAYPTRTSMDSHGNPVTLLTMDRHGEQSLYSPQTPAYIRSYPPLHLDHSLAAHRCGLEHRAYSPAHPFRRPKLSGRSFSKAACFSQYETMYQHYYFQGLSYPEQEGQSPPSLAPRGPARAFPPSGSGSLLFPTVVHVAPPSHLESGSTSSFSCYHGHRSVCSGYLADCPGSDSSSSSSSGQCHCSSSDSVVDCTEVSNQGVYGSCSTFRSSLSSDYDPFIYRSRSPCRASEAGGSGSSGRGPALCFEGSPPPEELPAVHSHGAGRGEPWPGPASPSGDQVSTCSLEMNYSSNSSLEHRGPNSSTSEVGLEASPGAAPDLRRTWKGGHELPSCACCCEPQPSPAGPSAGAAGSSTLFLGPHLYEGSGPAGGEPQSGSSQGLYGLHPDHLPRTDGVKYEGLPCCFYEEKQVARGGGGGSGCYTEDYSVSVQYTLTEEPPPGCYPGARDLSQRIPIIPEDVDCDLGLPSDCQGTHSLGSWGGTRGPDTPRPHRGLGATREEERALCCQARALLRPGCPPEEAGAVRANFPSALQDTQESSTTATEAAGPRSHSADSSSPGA

human ZNRF3 (free, in solution) (from UniProt Q9ULT6 56-936) (natural protein)
Kd (biotin-PEG12-MK1-3.6.10S): 118 nM
Kd (biotin-PEG2-MK1-3.6.10S): 149 nM

CC[C@H](C)[C@@H]1NC(=O)[C@@H]2CCCN2C(=O)[C@H](CCCNC(=N)N)NC(=O)[C@H](CCC(=O)O)NC(=O)[C@@H]2CSSC[C@@H]3NC(=O)[C@H](CCCCN)NC(=O)[C@H](CCCCN)NC(=O)[C@H](CC(N)=O)NC(=O)[C@H](CC(C)C)NC(=O)[C@H](CCCNC(=N)N)NC(=O)[C@H](CC(N)=O)NC(=O)[C@@H](NC(=O)[C@H](CO)NC(=O)CCOCCOCCNC(=O)CCCC[C@@H]4SC[C@@H]5NC(=O)N[C@@H]54)CSSC[C@H](NC(=O)[C@H](CSSC[C@@H](C(=O)N[C@@H](CCCNC(=N)N)C(=O)N4CCC[C@H]4C(=O)N[C@@H](CC(=O)O)C(=O)N[C@H](C(=O)NCC(=O)N4CCC[C@H]4C(=O)O)C(C)C)NC(=O)[C@H](Cc4ccc(O)cc4)NC(=O)[C@H](CCSC)NC(=O)[C@H](Cc4ccccc4)NC(=O)[C@H](CCCCN)NC(=O)[C@H](Cc4c[nH]c5ccccc45)NC(=O)CNC1=O)NC(=O)[C@H](CC(=O)O)NC(=O)[C@H](C)NC(=O)[C@H](CC(=O)O)NC(=O)[C@H](CO)NC(=O)[C@H](CC(N)=O)NC3=O)C(=O)N[C@@H](C)C(=O)N[C@@H](CC(N)=O)C(=O)N[C@@H](CCCCN)C(=O)N[C@@H](CCC(=O)O)C(=O)N[C@@H](CCCCN)C(=O)N2 [biotin-PEG2-MK1-3.6.10S] ({Biotin-PEG2}-SCNRLNKKCNSDADCCANKEKCERPIGWKFMYCRPDVGP-OH; disulfide 2-16, 9-22, 15-33; C-terminus assumed)
binding to RNF43 [1]: did not bind

I: SCNRLNKKCNSDADCCANKEKCERPIGWKFMYCRPDVGP / II: SCNRLNKKCNSDADCCANKEKCERPIGWKFMYCRPDVGP (disulfide I:2-I:16, I:9-I:22, I:15-I:33, II:2-II:16, II:9-II:22, II:15-II:33; linker I:N-II:N via CO(CH2CH2O)5CH2CH2CO) [di-MK1-3.6.10S]
activation of Wnt signaling in reporter assay (in words) [2]: able to induce Wnt signaling activation to a similar extent to the synthetic MK1-3.6.10 dimer

CC[C@H](C)[C@@H]1NC(=O)[C@@H]2CCCN2C(=O)[C@H](CCCNC(=N)N)NC(=O)[C@H](CCC(=O)O)NC(=O)[C@@H]2CSSC[C@@H]3NC(=O)[C@H](CCCCN)NC(=O)[C@H](CCCCN)NC(=O)[C@H](CC(N)=O)NC(=O)[C@H](CC(C)C)NC(=O)[C@H](CCCNC(=N)N)NC(=O)[C@H](CC(N)=O)NC(=O)[C@@H](NC(=O)[C@H](CO)NC(=O)CCOCCOCCOCCOCCOCCOCCOCCOCCOCCOCCOCCOCCNC(=O)CCCC[C@@H]4SC[C@@H]5NC(=O)N[C@@H]54)CSSC[C@H](NC(=O)[C@H](CSSC[C@@H](C(=O)N[C@@H](CCCNC(=N)N)C(=O)N4CCC[C@H]4C(=O)N[C@@H](CC(=O)O)C(=O)N[C@H](C(=O)NCC(=O)N4CCC[C@H]4C(=O)O)C(C)C)NC(=O)[C@H](Cc4ccc(O)cc4)NC(=O)[C@H](CCSC)NC(=O)[C@H](Cc4ccccc4)NC(=O)[C@H](CCCCN)NC(=O)[C@H](Cc4c[nH]c5ccccc45)NC(=O)CNC1=O)NC(=O)[C@H](CC(=O)O)NC(=O)[C@H](C)NC(=O)[C@H](CC(=O)O)NC(=O)[C@H](CO)NC(=O)[C@H](CC(N)=O)NC3=O)C(=O)N[C@@H](C)C(=O)N[C@@H](CC(N)=O)C(=O)N[C@@H](CCCCN)C(=O)N[C@@H](CCC(=O)O)C(=O)N[C@@H](CCCCN)C(=O)N2 [biotin-PEG12-MK1-3.6.10S] ({Biotin-PEG12}-SCNRLNKKCNSDADCCANKEKCERPIGWKFMYCRPDVGP-OH; disulfide 2-16, 9-22, 15-33; C-terminus assumed)
binding to RNF43 [1]: did not bind
